# Experimental data taken from US20150004134A1, “TREATMENT OF CANCER WITH HETEROCYCLIC INHIBITORS OF GLUTAMINASE” (Calithera Biosciences, Inc., priority 2012, published 2015).
# pIC50: −log10 of the molar value.
# Tests used:
# [1] = target: T1, recombinant form of Glutaminase 1 (GAC) (Homo sapiens, UniProt O94925); experiment: Recombinant Enzyme Assay - Time Dependence (60 min preincubation); type: biochemical; settings: read-out: GAC Delta N2 IC50 60 min preinc
# T1 sequence (O94925 137-598 isoform O94925-3 limits assumed): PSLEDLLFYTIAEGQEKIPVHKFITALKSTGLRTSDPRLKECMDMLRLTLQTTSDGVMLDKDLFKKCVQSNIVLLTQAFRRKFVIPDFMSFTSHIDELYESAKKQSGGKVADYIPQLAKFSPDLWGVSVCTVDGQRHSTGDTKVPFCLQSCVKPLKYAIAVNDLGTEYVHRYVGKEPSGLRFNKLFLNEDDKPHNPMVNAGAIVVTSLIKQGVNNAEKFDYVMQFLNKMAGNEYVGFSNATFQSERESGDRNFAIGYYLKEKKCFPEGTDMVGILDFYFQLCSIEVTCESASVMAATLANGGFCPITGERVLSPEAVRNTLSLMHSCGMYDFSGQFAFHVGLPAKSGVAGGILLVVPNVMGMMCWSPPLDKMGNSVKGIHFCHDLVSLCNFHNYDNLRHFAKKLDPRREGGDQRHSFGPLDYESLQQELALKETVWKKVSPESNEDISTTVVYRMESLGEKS
# Method in brief: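 Enzyme and compound preincubated 60 min at 20° C; reaction started with substrate buffer (50 mM Tris-HCl pH 8.0, 150 mM K2HPO4, 1 mM DTT, 20 mM L-glutamine, 2 mM NAD^+). NADH formation followed at 340 nm in kinetic mode for 15 min at 20° C; slopes (mAU/min) compared with DMSO and control-compound wells.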
# Caco-2 cell monolayers = experiment: Caco-2 Permeability Assay; type: in vitro ADME; settings: for Permeability Classification: absorption potential
# Excerpt: Caco-2 cells are commonly used in a confluent monolayer on a cell culture insert filter. When cultured in this format and under specific conditions, the cells become differentiated and polarized such that their phenotype, morphologically and functionally resembles the enterocytes lining the small intestine. The cell monolayer provides a physical and biochemical barrier to the passage of small molecules, and is widely used across the pharmaceutical industry as an in vitro model of the human small intestinal mucosa to predict the absorption of orally administered drugs (Hidalgo et al., Gastroenterology, 1989; Artursson, J. Pharm. Sci., 1990). The correlation between the in vitro apparent permeability (P ? app) across Caco-2 monolayers and the in vivo absorption is well established (Artursson et al., Biochem. Biophys. Res. Comm., 1991).
# The present assay was used to determine the bidirectional permeability of the compounds of the invention through Caco-2 cell monolayers. Caco-2 cells were grown in confluent monolayers where the media of both the apical (A) and basolateral (B) sides were at pH 7.4. Compounds were dosed at 1 μM in the presence of 200 μM Lucifer Yellow, on the apical side (A→B) or the basolateral side (B→A) for assessment, in duplicate.
# The absorption potential of compounds were classified as either Low (P-app <1×10^−6 CM/S) or High (P-app >1×10^−6 CM/S).
# [2] = target: T2, recombinant form of glutaminase (GAC Delta N2) (Homo sapiens, UniProt O94925); experiment: Modified Recombinant Enzyme Assay - Time Dependence; type: biochemical; settings: 60 min preincubation
# T2 sequence (O94925 137-598 isoform O94925-3 limits assumed): T1 sequence (O94925 137-598 isoform O94925-3 limits assumed)
# Description: Compounds were assessed for their ability to inhibit the enzymatic activity of a recombinant form of glutaminase using a biochemical assay that couples the production of Glu (liberated by glutaminase) to GDH and measures the increase in fluorescence due to the reduction of NADP+ to NADPH.
# 3x-enzyme-containing solution was made by diluting recombinant glutaminase and GDH from Proteus species (Sigma Aldrich no. G4387) into glutaminase buffer to create a 6 nM glutaminase plus 18 units/mL GDH solution. […] When time-dependent effects of compound inhibition were tested, enzyme-containing solution was treated with inhibitor-containing solution for the indicated time prior to addition of substrate-containing solution.
# IC50 Determination: The initial velocities of each progress curve were calculated using a straight line equation (Y=Yintercept+(slope)*X). Initial velocity values were plotted against compound concentration and fit to a four parameter dose response equation (% activity=Bottom+(Top−Bottom)/(1+10̂((LogIC50−X)*HillSlope))) to calculate an IC50 value.
# [3] = target: T1, recombinant form of Glutaminase 1 (GAC); experiment: Recombinant Enzyme Assay (no preincubation); type: biochemical; settings: read-out: GAC Delta N2 IC50 no preinc;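 also: GDH-coupled GAC activity read as absorbance at 340 nm in kinetic mode over 15 min at 20 °C, slopes compared with a DMSO-only control, lower slope means inhibition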
# Description: Compounds were assessed for their ability to inhibit the enzymatic activity of a recombinant form of Glutaminase 1 (GAC) using a biochemical assay that couples the production of glutamate (liberated by GAC) to glutamate dehydrogenase (GDH) and measuring the change in absorbance for the reduction of NAD^+ to NADH. […] Enzymatic reaction was started with the addition of 50 μL of enzyme solution (50 mM Tris-HCl pH 8.0, 0.2 mM EDTA, 150 mM K2HPO4, 0.1 mg/ml BSA, 1 mM DTT, 10 ppm antifoam, 4 units/ml GDH, 4 mM adenosine diphosphate, and 4 nM GAC) and read in a Molecular Devices M5 plate reader at 20° C. The plate reader was configured to read absorbance (λ=340 nm) in kinetic mode for 15 minutes. Data was recorded as milli-absorbance units per minute and slopes were compared to a control compound and a DMSO-only control on the same plate. Compounds with slopes less than the DMSO control were considered inhibitors and plate variability was assessed using the control compound.
# P493-6 (myc "on") cells = experiment: Cell Proliferation Assay; type: cell-based; settings: P493-6, 72 h, read-out: Cell prolif P493 72 h IC50, P493 cells, 72 h
# Method in brief: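 P493-6 cells with myc on, 10,000 per well in RPMI/10% FBS, exposed to serially diluted compound (0.5% DMSO final) for 72 h at 37 °C, 5% CO2. Antiproliferative effect read by Cell Titer Glo luminescence or Viacount FACS viability count.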
# HCT116 cells = experiment: Colon Carcinoma Xenograft Efficacy Study; type: in vivo, mice; settings: intraperitoneal, twice daily, vs vehicle (FIG. 11)
# Description: Female scid/bg mice, approximately 6 weeks of age, were implanted subcutaneously on the right flank with 5×10^6 HCT116 cells per mouse in a volume of 100 uL of sterile PBS. When tumors reached a volume of 50-100 mm^3, mice were randomized to groups of n=10 to receive either vehicle or test compound delivered twice daily by intraperitoneal injection. Tumors were measured three times per week using Vernier calipers and tumor volume calculated using the formula: Volume=(Length×Width^2/2), where length and width are the longest perpendicular sides of the tumor. Dosing continued twice daily until control tumors reached a size of 2000 mm^3 Statistical comparisons were made using a 2-way ANOVA with Bonferroni post-test.
SMILES,Significant Efflux (Caco-2 cell monolayers),Permeability Classification (Caco-2 cell monolayers),pIC50 [2],further results
O=C(Cc1cccc(OC(F)(F)F)c1)Nc1ccc(CCCCc2nnc(NC(=O)C(O)c3cccc(Cl)c3)s2)nn1 (stereo not drawn) [Compound 447],Yes (efflux ratios being significant when greater than or equal to 3 when the Papp (B→A) was greater than or equal to 1×10^−6 cm/s),High (High (P-app >1×10^−6 CM/S)),,pIC50 [1]: 8.30
COc1cc(CC(=O)Nc2ccc(CCCCc3nnc(NC(=O)Cc4ccccn4)s3)nn2)cc(OC(F)(F)F)c1 [Compound 729],,,7.80,
CC(C(=O)Nc1nnc(CCCCc2ccc(NC(=O)Cc3ccccc3)nn2)s1)c1ccccc1 (stereo not drawn) [Compound 616],Yes (efflux ratios being significant when greater than or equal to 3 when the Papp (B→A) was greater than or equal to 1×10^−6 cm/s),High (High (P-app >1×10^−6 CM/S)),,pIC50 [1]: 8.10
O=C(Cc1cc(OC(F)(F)F)ccc1F)Nc1ccc(CCCCc2nnc(NC(=O)Cc3ccccn3)s2)nn1 [Compound 720],,,7.70,
O=C(Cc1ccccn1)Nc1nnc(CCCCc2ccc(NC(=O)C(O)c3ccccc3)nn2)s1 (stereo not drawn) [Compound 715],,,6.72,
O=C(Cc1cccc(OC(F)(F)F)c1)Nc1ccc(CCCCc2nnc(NC(=O)Cc3ccccn3)s2)nn1 [Compound 670],Yes (efflux ratios being significant when greater than or equal to 3 when the Papp (B→A) was greater than or equal to 1×10^−6 cm/s),High (High (P-app >1×10^−6 CM/S)),,
Nc1cccc(CC(=O)Nc2nnc(CCCCc3ccc(NC(=O)Cc4cccc(OC(F)(F)F)c4)nn3)s2)n1 [Compound 725],,,7.30,
O=C(Cc1cc(OC(F)(F)F)ccc1O)Nc1ccc(CCCCc2nnc(NC(=O)Cc3ccccn3)s2)nn1 [Compound 718],,,7.59,
CC(C(=O)Nc1ccc(CCCCc2nnc(NC(=O)Cc3cccc(CNC(=O)OC(C)(C)C)c3)s2)nn1)c1ccccc1 (stereo not drawn) [Compound 436],Yes (efflux ratios being significant when greater than or equal to 3 when the Papp (B→A) was greater than or equal to 1×10^−6 cm/s),High (High (P-app >1×10^−6 CM/S)),,
COc1ccc(OC(F)(F)F)cc1CC(=O)Nc1ccc(CCCCc2nnc(NC(=O)Cc3ccccn3)s2)nn1 [Compound 717],,,7.47,
O=C(Cc1ccc(Cl)c(OC(F)(F)F)c1)Nc1ccc(CCCCc2nnc(NC(=O)Cc3ccccn3)s2)nn1 [Compound 721],,,7.80,
Cc1cccc(CC(=O)Nc2nnc(CCCCc3ccc(NC(=O)Cc4cccc(OC(F)(F)F)c4)nn3)s2)n1 [Compound 728],,,7.92,
CC(C)(C)OC(=O)Nc1cccc(CC(=O)Nc2nnc(CCCCc3ccc(NC(=O)Cc4cccc(OC(F)(F)F)c4)nn3)s2)n1 [Compound 724],,,6.85,
O=C(Cc1cccc(OC(F)(F)F)c1)Nc1ccc(CCCCc2nnc(NC(=O)Cc3ccccc3)s2)nn1 [Compound 585],Yes (efflux ratios being significant when greater than or equal to 3 when the Papp (B→A) was greater than or equal to 1×10^−6 cm/s),High (High (P-app >1×10^−6 CM/S)),,pIC50 [1]: 8.22
O=C(Cc1ccccc1)Nc1ccc(CCCCc2nnc(NC(=O)Cc3ccccc3)s2)nn1 [Compound 295],Yes (efflux ratios being significant when greater than or equal to 3 when the Papp (B→A) was greater than or equal to 1×10^−6 cm/s),High (High (P-app >1×10^−6 CM/S)),,"pIC50 [3]: 7.24; pIC50 [1]: 8.00; pIC50 (P493-6 (myc ""on"") cells): 7.41"
O=C(Cc1ccc(O)c(OC(F)(F)F)c1)Nc1ccc(CCCCc2nnc(NC(=O)Cc3ccccn3)s2)nn1 [Compound 723],,,7.38,
COc1ccc(CC(=O)Nc2ccc(CCCCc3nnc(NC(=O)Cc4ccccn4)s3)nn2)cc1OC(F)(F)F [Compound 722],,,7.62,
O=C(Cc1ccccc1)Nc1ccc(CCCCc2nnc(NC(=O)Cc3ccccn3)s2)nn1 [Compound 354],Yes (efflux ratios being significant when greater than or equal to 3 when the Papp (B→A) was greater than or equal to 1×10^−6 cm/s),High (High (P-app >1×10^−6 CM/S)),,"pIC50 (P493-6 (myc ""on"") cells): 7.33"
O=C(Cc1cccc(OC(F)(F)F)c1)Nc1ccc(CCCCc2nnc(NC(=O)[C@H](O)c3ccccc3)s2)nn1 [Compound 705],Yes (efflux ratios being significant when greater than or equal to 3 when the Papp (B→A) was greater than or equal to 1×10^−6 cm/s),High (High (P-app >1×10^−6 CM/S)),,
O=C(Cc1cc(O)cc(OC(F)(F)F)c1)Nc1ccc(CCCCc2nnc(NC(=O)Cc3ccccn3)s2)nn1 [Compound 730],,,7.89,
O=C(Cc1ccccc1)Nc1ccc(CCCCc2nnc(NC(=O)C(O)c3cccc(Cl)c3)s2)nn1 (stereo not drawn) [Compound 318],Yes (efflux ratios being significant when greater than or equal to 3 when the Papp (B→A) was greater than or equal to 1×10^−6 cm/s),High (High (P-app >1×10^−6 CM/S)),,"pIC50 [3]: 6.74; pIC50 [1]: 8.22; pIC50 (P493-6 (myc ""on"") cells): 7.77"
"O=C(CCN1CCOCC1)OCC(C(=O)Nc1nnc(CCCCc2nnc(NC(=O)C(COC(=O)CCN3CCOCC3)c3ccccc3)s2)s1)c1ccccc1 (stereo not drawn) [Compound 188, {[5,5′-(butane-1,4-diyl)-bis(1,3,4-thiadiazole-5,2-diyl)]-bis(azanediyl)}-bis(3-oxo-2-phenylpropane-3,1-diyl)-bis(3-morpholinopropanoate)]",,,,"pIC50 (P493-6 (myc ""on"") cells): 6.34; tumor size (HCT116 cells): reduced tumor size"
O=C(Cc1ccc(F)c(OC(F)(F)F)c1)Nc1ccc(CCCCc2nnc(NC(=O)Cc3ccccn3)s2)nn1 [Compound 719],,,7.48,
CC(C)(C)OC(=O)NCc1cccc(CC(=O)Nc2nnc(CCCCc3ccc(NC(=O)Cc4ccccc4)nn3)s2)c1 [Compound 339],Yes (efflux ratios being significant when greater than or equal to 3 when the Papp (B→A) was greater than or equal to 1×10^−6 cm/s),High (High (P-app >1×10^−6 CM/S)),,"pIC50 (P493-6 (myc ""on"") cells): 8.05"
O=C(Cc1cccc(OC(F)(F)F)c1)Nc1ccc(CCCCc2nnc(NC(=O)Cc3cccc(OC(F)(F)F)c3)s2)nn1 [Compound 660],Yes (efflux ratios being significant when greater than or equal to 3 when the Papp (B→A) was greater than or equal to 1×10^−6 cm/s),Low (Low (P-app <1×10^−6 CM/S)),,pIC50 [1]: 7.60
O=C(Cc1ccccc1Cl)Nc1ccc(CCCCc2nnc(NC(=O)Cc3ccccc3F)s2)nn1 [Compound 533],Yes (efflux ratios being significant when greater than or equal to 3 when the Papp (B→A) was greater than or equal to 1×10^−6 cm/s),High (High (P-app >1×10^−6 CM/S)),,
